Reference: patent US20260240834A1, “METHODS OF TREATING CANCER” (XRad Holding Cayman Limited, priority 2023, published 2026)
Like-named read-outs stand apart in the source and are kept apart here. One block for each molecule: values may come before it.

Tests used:
[1] = tested on: UWB1.289+BRCA1 stable cell line (wild-type BRCA1 restored); assay: Clonogenic survival assay, UWB1.289+BRCA1; assay type: cell-based, human; conditions: UWB1.289+BRCA1 cells, Compound A at 250, 500 or 1000 nM, 8 days
Source text: (§1) A549 human lung carcinoma cell line, UWB1.289 BRCA1 mutant human ovarian cancer cell line, and UWB1.289+BRCA1 stable cell line derived from UWB1.289, in which wild-type BRCA1 was restored, were obtained from the American Type Culture Collection (ATCC). Capan-1 BRCA2 mutant human pancreatic cell line was obtained from the Duke Cell Culture Facility (Duke University, Durham, NC). HCC1937 BRCA1 mutant breast cancer cell line was obtained from Simon Powell (Memorial-Sloan Kettering, NY, NY). All cell lines were authenticated by short tandem repeat profiling and tested negative for mycoplasma. A549 cells were cultured in RPMI 1640 medium (Gibco), supplemented with 10% fetal bovine serum (FBS) (Corning) and 1× Antibiotic-Antimycotic (A-A) (Gibco). Capan-1 cells were grown in Iscove's Modified Dulbecco's Medium (IMDM) (Gibco), 20% FBS and 1×A-A. HCC1937 cells were grown in Iscove's Modified Dulbecco's Medium, 15% serum, and L-glutamine (2 mM). […]
(§2) UWB1.289 and UWB1.289+BRCA1 cells were plated in 6-well plates at 1000 cells/well and treated with DMSO or Compound A at 250, 500 or 1000 nM for 8 days before colonies were counted. For shRNA experiments, A549 cells were treated with DMSO or Compound A at 250, 500 or 1000 nM following transduction of control shRNA or shBRCA2 for 8 days before colonies were counted. […]

[2] = tested on: A549 human lung carcinoma cell line, BRCA2 knockdown (shBRCA2); assay: Clonogenic survival assay, A549 with shBRCA2; assay type: cell-based; conditions: A549 cells with BRCA2 knockdown, Compound A at 250, 500 or 1000 nM, 8 days
Source text: as §1, §2

[3] = tested on: UWB1.289 BRCA1 mutant human ovarian cancer cell line; assay: Clonogenic survival assay, UWB1.289; assay type: cell-based; conditions: UWB1.289 cells, Compound A at 250, 500 or 1000 nM, 8 days
Source text: as §1, §2

[4] = tested on: Capan-1 BRCA2 mutant human pancreatic cell line; assay: CellTiter-Glo (CTG) cell growth inhibition, Capan-1; assay type: cell-based; conditions: Capan-1 cells; for IC50: Homo sapiens, 312 h
Source text: (§3) A549 human lung carcinoma cell line, UWB1.289 BRCA1 mutant human ovarian cancer cell line, and UWB1.289+BRCA1 stable cell line derived from UWB1.289, in which wild-type BRCA1 was restored, were obtained from the American Type Culture Collection (ATCC). Capan-1 BRCA2 mutant human pancreatic cell line was obtained from the Duke Cell Culture Facility (Duke University, Durham, NC). HCC1937 BRCA1 mutant breast cancer cell line was obtained from Simon Powell (Memorial-Sloan Kettering, NY, NY). All cell lines were authenticated by short tandem repeat profiling and tested negative for mycoplasma. A549 cells were cultured in RPMI 1640 medium (Gibco), supplemented with 10% fetal bovine serum (FBS) (Corning) and 1× Antibiotic-Antimycotic (A-A) (Gibco). Capan-1 cells were grown in Iscove's Modified Dulbecco's Medium (IMDM) (Gibco), 20% FBS and 1×A-A. HCC1937 cells were grown in Iscove's Modified Dulbecco's Medium, 15% serum, and L-glutamine (2 mM). UWB1.289 and UWB1.289+BRCA1 cells were grown in 50% RPMI 1640 supplemented with 1 mM Sodium Pyruvate, 10 mM HEPES and 4500 mg/L glucose and 50% Mammary Epithelial Growth Medium (MEGM) (Clonetics) with 200 ug/ml G-418 (Gibco) and supplemented with 3% FBS and 1×A-A. All cell lines were grown at 37° C. in 5% CO2. Cell growth inhibition was determined via the CellTiter-Glo (CTG) assay (Promega). […] HCC1937 and UWB1.289 cells were treated with increasing concentrations of Compound A, niraparib, or the combination for 7 days.

[5] = tested on: UWB1.289 BRCA1 mutant human ovarian cancer cell line; assay: CellTiter-Glo (CTG) cell growth inhibition, UWB1.289; assay type: cell-based; conditions: UWB1.289 cells; for IC50: Homo sapiens
Source text: as §3

[6] = tested on: UWB1.289+BRCA1 stable cell line (wild-type BRCA1 restored); assay: CellTiter-Glo (CTG) cell growth inhibition, UWB1.289+BRCA1; assay type: cell-based, human; conditions: for IC50: Homo sapiens, UWB1289, UWB1.289 + BRCA1 cells
Source text: as §3

[7] = tested on: HCC1937 BRCA1 mutant breast cancer cell line; assay: CellTiter-Glo (CTG) cell growth inhibition, HCC1937; assay type: cell-based, human; conditions: HCC1937 cells; for IC50: Homo sapiens, 168 h
Source text: as §3

[8] = Compound A in combination with niraparib, 7 days

- IC50 ([5]; UWB1289, 168 h, single agent, 7 days, CTG, read-out: Single Agent IC50 (mean ± SEM) Compound A): 260 ± 100 nM
- IC50 ([7]; single agent, 7 days, CTG, read-out: Single Agent IC50 (mean ± SEM) Compound A): 1000 ± 170 nM
SMILES: CC(C)NCCOc1ncc(-c2cc3c4c(cnc3cc2F)N(C)C(=O)C42CCC2)cc1NS(C)(=O)=O [Compound A]
- clonogenic survival [1]: rescued with re-expression of wild-type BRCA1
- clonogenic survival [2]: dose-dependent decrease in survival
- clonogenic survival [3]: exhibited sensitivity to Compound A
- CI50 (combination index, method of Chou) ([4]; Compound A in combination with niraparib, 13 days): 0.5
- IC50 ([4]; single agent, 13 days, CTG, read-out: Single Agent IC50 (mean ± SEM) Compound A): 810 ± 80 nM
- CI50 (combination index, method of Chou) [5, 8]: 0.4
- IC50 ([6]; single agent, CTG, read-out: Single Agent IC50 (mean ± SEM) Compound A): 800 ± 10 nM
- CI50 (combination index, method of Chou) [7, 8]: 0.3

- IC50 ([5]; UWB1289, 168 h, single agent, 7 days, CTG, read-out: Single Agent IC50 (mean ± SEM) Niraparib): 330 ± 90 nM
- IC50 ([5]; UWB1289, 0.25 μM Compound A + niraparib for 3 days, then niraparib alone for additional 4 days, read-out: IC50 + 0.25 μM Compound A (mean ± SEM) Niraparib): < 14 nM
- IC50 ([7]; 0.25 μM Compound A + increasing concentrations of niraparib for 7 days, read-out: IC50 + 0.25 μM Compound A (mean ± SEM) Niraparib): 380 ± 180 nM
- IC50 ([7]; single agent, 7 days, CTG, read-out: Single Agent IC50 (mean ± SEM) Niraparib): 3700 ± 270 nM
SMILES: NC(=O)c1cccc2cn(-c3ccc([C@@H]4CCCNC4)cc3)nc12 [Niraparib, niraparib]
- shift of the dose response curve of niraparib ([4]; addition of 0.5 μM Compound A): -5 fold
- IC50 ([4]; 0.5 μM Compound A + increasing concentrations of niraparib for 13 days, read-out: IC50 + 0.5 μM Compound A (mean ± SEM) Niraparib): 110 ± 10 nM
- IC50 ([4]; single agent, 13 days, CTG, read-out: Single Agent IC50 (mean ± SEM) Niraparib): 550 ± 50 nM
- shift of the dose response curve of niraparib ([5]; 0.25 μM Compound A for 3 days of a 7-day treatment with niraparib): > 23 fold
- IC50 ([6]; 0.25 μM Compound A + niraparib for 3 days, then niraparib alone for additional 4 days, read-out: IC50 + 0.25 μM Compound A (mean ± SEM) Niraparib): 140 ± 20 nM
- IC50 ([6]; single agent, CTG, read-out: Single Agent IC50 (mean ± SEM) Niraparib): 1400 ± 110 nM
- shift of the dose response curve of niraparib ([6]; UWB1.289+BRCA1 cells, 0.25 μM Compound A for 3 days of a 7-day treatment with niraparib): 10 fold
- shift of the dose response curve of niraparib ([7]; addition of 0.25 μM Compound A): 10 fold
